Data from patent publication US10208030B2, “GPR119 agonist compounds” (Mankind Pharma Ltd., priority 2016, dated 2019).

Target: T1, hGPR119 (Homo sapiens, UniProt Q8TDV5)
T1 construct: expressed in transfected cells; host or cells: CHO cells (CHO-hGPR119)
T1 sequence (Q8TDV5 1-335): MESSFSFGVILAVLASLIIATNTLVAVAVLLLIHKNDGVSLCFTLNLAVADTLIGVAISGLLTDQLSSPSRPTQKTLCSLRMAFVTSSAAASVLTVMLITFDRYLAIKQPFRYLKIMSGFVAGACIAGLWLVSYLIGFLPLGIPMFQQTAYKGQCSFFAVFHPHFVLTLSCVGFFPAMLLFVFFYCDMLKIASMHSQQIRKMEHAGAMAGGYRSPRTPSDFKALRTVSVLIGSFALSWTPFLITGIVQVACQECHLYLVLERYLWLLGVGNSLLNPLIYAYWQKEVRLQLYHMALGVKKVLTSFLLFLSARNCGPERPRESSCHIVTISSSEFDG
Test: In vitro cyclic AMP assay (Cisbio HTRF) in CHO-hGPR119 cells
Type: cell-based
Conditions: cAMP; for activation at 1 µM: 1 h, 60 min, read-out: Induction (% induction at 1 μM); for EC50: class symbols, legend not given
Outline: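 Cells plated at 5000/well and exposed to test compound dose series for 60 min at room temperature with 1 mM IBMX and 0.5% DMSO (final). Lysis with anti-cAMP antibody/d2-cAMP detection reagents, 1 h at room temperature; HTRF read at 665/620 nm (337 nm excitation); EC50 from concentration-response.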

SMILES | activation at 1 µM [%] | EC50
CC(C)c1noc(N2CCC(Nc3nc(-c4ccc(S(C)(=O)=O)nc4)ns3)CC2)n1 [Compound 1126, 1-(3-isopropyl-1,2,4-oxadiazol-5-yl)-N-(3-(6-(methylsulfonyl)pyridin-3-yl)-1,2,4-thiadiazol-5-yl)piperidin-4-amine] | 7 | 
CCc1cnc(N2CC=C(c3nsnc3Oc3ccc(-n4cnnn4)cc3)CC2)nc1 [Compound 1005, 3-(4-(1H-tetrazol-1-yl)phenoxy)-4-(1-(5-ethylpyrimidin-2-yl)-1,2,3,6-tetrahydropyridin-4-yl)-1,2,5-thiadiazole] | 2 | 
CC(C)c1noc(N2CCC(C(C)Oc3nn4cc(-c5ccncc5)nc4s3)CC2)n1 (centres unmarked) [Compound 1050, 3-isopropyl-5-(4-(1-((6-(pyridin-4-yl)imidazo[2,1-b][1,3,4]thiadiazol-2-yl)oxy)ethyl)piperidin-1-yl)-1,2,4-oxadiazole] | 68 | 
Cc1nc(S(C)(=O)=O)ccc1-c1cn2nc(O[C@@H](C)C3CCN(c4nc(C(C)C)no4)CC3)sc2n1 [Compound 1104, 2-((S)-1-(1-(3-isopropyl-1,2,4-oxadiazol-5-yl)piperidin-4-yl)ethoxy)-6-(2-methyl-6-(methylsulfonyl)pyridin-3-yl)imidazo[2,1-b][1,3,4]thiadiazole] | 46 | 
CCCc1cnc(N2CCC(Oc3nc(-c4ccc(S(C)(=O)=O)nc4)ns3)CC2)nc1 [Compound 1123, 2-(4-(3-(6-(methylsulfonyl)pyridin-3-yl)-1,2,4-thiadiazol-5-yloxy)piperidin-1-yl)-5-propylpyrimidine] | 18 | 
CC(C)c1noc(C2CCN(c3nn4cc(-c5ccc(S(C)(=O)=O)cc5)nc4s3)CC2)n1 [Compound 1016, 3-isopropyl-5-(1-(6-(4-(methylsulfonyl)phenyl)imidazo[2,1-b][1,3,4]thiadiazol-2-yl)piperidin-4-yl)-1,2,4-oxadiazole] | 54 | 
CC(C)c1noc(N2CCC([C@@H](C)Oc3nn4c(F)c(-c5ccc(S(C)(=O)=O)cc5)nc4s3)CC2)n1 [Compound 1066, (R)-5-(4-(1-((5-fluoro-6-(4-(methylsulfonyl)phenyl)imidazo[2,1-b][1,3,4]thiadiazol-2-yl)oxy)ethyl)piperidin-1-yl)-3-isopropyl-1,2,4-oxadiazole] | 72 | A+
CC(C)OC(=O)N1CCC(c2cn3nc(-c4ccc(S(C)(=O)=O)cc4)sc3n2)CC1 [Compound 1030, isopropyl 4-(2-(4-(methylsulfonyl)phenyl)imidazo[2,1-b][1,3,4]thiadiazol-6-yl)piperidine-1-carboxylate] | 26 | 
CC(C)c1noc(N2CCC([C@@H](C)Oc3nn4cc(-c5ccc(S(C)(=O)=O)cc5)nc4s3)CC2)n1 [Compound 1060, (R)-3-isopropyl-5-(4-(1-((6-(4-(methylsulfonyl)phenyl)imidazo[2,1-b][1,3,4]thiadiazol-2-yl)oxy)ethyl)piperidin-1-yl)-1,2,4-oxadiazole] | 65 | A+
CC(C)c1noc(N2CCC(COc3nn4cc(-c5ccc(C#N)cc5)nc4s3)CC2)n1 [Compound 1053, 4-(2-((1-(3-isopropyl-1,2,4-oxadiazol-5-yl)piperidin-4-yl)methoxy)imidazo[2,1-b][1,3,4]thiadiazol-6-yl)benzonitrile] | 49 | 
CC(C)OC(=O)N1CCC(N(C)c2nn3cc(-c4ccc(S(C)(=O)=O)cc4)nc3s2)CC1 [Compound 1022, isopropyl 4-(methyl(6-(4-(methylsulfonyl)phenyl)imidazo[2,1-b][1,3,4]thiadiazol-2-yl)amino)piperidine-1-carboxylate] | 16 | 
CC(C)c1noc(N2CCC([C@H](C)Oc3nn4cc(-c5cc[n+]([O-])cc5)nc4s3)CC2)n1 [Compound 1068, (S)-4-(2-(1-(1-(3-isopropyl-1,2,4-oxadiazol-5-yl)piperidin-4-yl)ethoxy)imidazo[2,1-b][1,3,4]thiadiazol-6-yl)pyridine 1-oxide] | 59 | 
CS(=O)(=O)c1ccc(-c2cn3nc(C4CCN(Cc5ccccc5)CC4)sc3n2)cc1 [Compound 1019, 2-(1-benzylpiperidin-4-yl)-6-(4-(methylsulfonyl)phenyl)imidazo[2,1-b][1,3,4]thiadiazole] | 11 | 
CC(C)c1noc(C2CCN(c3nn4cc(-c5ccncc5)nc4s3)CC2)n1 [Compound 1051, 3-isopropyl-5-(1-(6-(pyridin-4-yl)imidazo[2,1-b][1,3,4]thiadiazol-2-yl)piperidin-4-yl)-1,2,4-oxadiazole] | 7 | 
CC(C)OC(=O)N1CCC(c2cn3nc(-c4ccc(C(=O)N(C)C)cc4)sc3n2)CC1 [Compound 1034, isopropyl 4-(2-(4-(dimethylcarbamoyl)phenyl)imidazo[2,1-b][1,3,4]thiadiazol-6-yl)piperidine-1-carboxylate] | 53 | 
CC(C)c1noc(N2CCC(COc3nc(-c4ccc(S(C)(=O)=O)cc4)ns3)CC2)n1 [Compound 1117, 4-((3-(4-(methylsulfonyl)phenyl)-1,2,4-thiadiazol-5-yloxy)methyl)-1-(3-isopropyl-1,2,4-oxadiazol-5-yl)piperidine] | 2 | 
CN(C)C(=O)N1CCC(c2nn3cc(-c4ccc(S(C)(=O)=O)cc4)nc3s2)CC1 [Compound 1033, N,N-dimethyl-4-(6-(4-(methylsulfonyl)phenyl)imidazo[2,1-b][1,3,4]thiadiazol-2-yl)piperidine-1-carboxamide] | 2 | 
CC(C)OC(=O)N1CCN(c2nsnc2Oc2ccc(-n3cnnn3)cc2)CC1 [Compound 1010, isopropyl 4-(4-(4-(1H-tetrazol-1-yl)phenoxy)-1,2,5-thiadiazol-3-yl)piperazine-1-carboxylate] | 2 | 
CCc1cnc(N2CCC(c3nsnc3C(=O)Nc3ccc(S(C)(=O)=O)cc3F)CC2)nc1 [Compound 1015, 4-(1-(5-ethylpyrimidin-2-yl)piperidin-4-yl)-N-(2-fluoro-4-(methylsulfonyl)phenyl)-1,2,5-thiadiazole-3-carboxamide] | 3 | 

Other lines, results leading:

activation at 1 µM [%] | EC50 | SMILES
65 | A+ | CC(Oc1nn2cc(-c3ccc(S(C)(=O)=O)cc3)nc2s1)C1CCN(c2ncc(Cl)cn2)CC1 (centres unmarked) [Compound 1069, 2-(1-(1-(5-chloropyrimidin-2-yl)piperidin-4-yl)ethoxy)-6-(4-(methylsulfonyl)phenyl)imidazo[2,1-b][1,3,4]thiadiazole]
74 |  | CCc1cnc(N2CCC(C(C)Oc3nn4cc(-c5ccncc5)nc4s3)CC2)nc1 (stereo in doubt) [Compound 1080, 2-((S)-1-(1-(5-ethylpyrimidin-2-yl)piperidin-4-yl)ethoxy)-6-(pyridin-4-yl)imidazo[2,1-b][1,3,4]thiadiazole]
9 |  | COc1cc(S(C)(=O)=O)ccc1-c1cn2nc(O[C@@H](C)C3CCN(c4nc(C(C)C)no4)CC3)sc2n1 [Compound 1103, 2-((S)-1-(1-(3-isopropyl-1,2,4-oxadiazol-5-yl)piperidin-4-yl)ethoxy)-6-(2-methoxy-4-(methylsulfonyl)phenyl)imidazo[2,1-b][1,3,4]thiadiazole]
80 |  | CCCc1cnc(N2CCC([C@H](C)Oc3nn4cc(-c5ccncc5F)nc4s3)CC2)nc1 [Compound 1082, 2-((S)-1-(1-(5-propylpyrimidin-2-yl)piperidin-4-yl)ethoxy)-6-(3-fluoropyridin-4-yl)imidazo[2,1-b][1,3,4]thiadiazole]
84 | A+ | CCc1cnc(N2CCC(C(C)Oc3nn4cc(-c5ccc(S(C)(=O)=O)nc5F)nc4s3)CC2)nc1 (stereo in doubt) [Compound 1102, 2-((S)-1-(1-(5-ethylpyrimidin-2-yl)piperidin-4-yl)ethoxy)-6-(2-fluoro-6-(methylsulfonyl)pyridin-3-yl)imidazo[2,1-b][1,3,4]thiadiazole]
68 |  | C[C@H](Oc1nn2cc(-c3ccc(S(C)(=O)=O)cc3F)nc2s1)C1CCN(c2ncc(C(F)(F)F)cn2)CC1 [Compound 1098, 2-((S)-1-(1-(5-(trifluoromethyl)pyrimidin-2-yl)piperidin-4-yl)ethoxy)-6-(2-fluoro-4-(methylsulfonyl)phenyl)imidazo[2,1-b][1,3,4]thiadiazole]
77 |  | C[C@H](Oc1nn2cc(-c3ccc(S(C)(=O)=O)cc3)nc2s1)C1CCN(c2ncc(Cl)cn2)CC1 [Compound 1083, 2-((S)-1-(1-(5-chloropyrimidin-2-yl)piperidin-4-yl)ethoxy)-6-(4-(methylsulfonyl)phenyl)imidazo[2,1-b][1,3,4]thiadiazole]
75 |  | CCc1cnc(N2CCC([C@H](C)Oc3nn4cc(-c5ccnc(OC)c5)nc4s3)CC2)nc1 [Compound 1093, 2-((S)-1-(1-(5-ethylpyrimidin-2-yl)piperidin-4-yl)ethoxy)-6-(2-methoxypyridin-4-yl)imidazo[2,1-b][1,3,4]thiadiazole]
67 |  | CCOC(=O)N1CCC(C(C)Oc2nn3cc(-c4ccc(S(C)(=O)=O)cc4F)nc3s2)CC1 (centres unmarked) [Compound 1107, Ethyl 4-(1-(6-(2-fluoro-4-(methylsulfonyl)phenyl)imidazo[2,1-b][1,3,4]thiadiazol-2-yloxy)ethyl)piperidine-1-carboxylate]
